Test results as given in ChEMBL document CHEMBL1201862, “PubChem BioAssay data set” (2004).
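Values below derive from 48-hour exposures of cells grown in 96-well plates, with endpoints linearly interpolated between the two concentrations bracketing the appropriate inhibition level. GI50 marks 50% less growth.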 Active and inactive are the calls of the source. No stated cut-off is given here; in the data, active = GI50 up to about 1.1 µM and inactive = higher.

Assays:
Assay in all cases: inhibition of tumour cell growth, NCI panel, 48 h
LOX IMVI = tested on: LOX IMVI
MOLT-4 = tested on: MOLT-4
OVCAR-3 = tested on: OVCAR-3
Malme-3M = tested on: Malme-3M
SK-MEL-28 = tested on: SK-MEL-28
UO-31 = tested on: UO-31
SF-268 = tested on: SF-268
SNB-19 = tested on: SNB-19
SW-620 = tested on: SW-620
RXF 393 = tested on: RXF 393
M14 = tested on: M14
COLO 205 = tested on: COLO 205
MCF7 = tested on: MCF7
TK-10 = tested on: TK-10
OVCAR-8 = tested on: OVCAR-8
NCI/ADR-RES = tested on: NCI/ADR-RES
SF-295 = tested on: SF-295
HCT-15 = tested on: HCT-15
K562 = tested on: K562
786-0 = tested on: 786-0
HCC 2998 = tested on: HCC 2998
HOP-62 = tested on: HOP-62
SF-539 = tested on: SF-539
CCRF-CEM = tested on: CCRF-CEM
IGROV-1 = tested on: IGROV-1
HCT-116 = tested on: HCT-116
OVCAR-4 = tested on: OVCAR-4
CAKI-1 = tested on: CAKI-1
EKVX = tested on: EKVX
HOP-92 = tested on: HOP-92
U-251 = tested on: U-251
MDA-MB-231 = tested on: MDA-MB-231
MDA-MB-435 = tested on: MDA-MB-435
A498 = tested on: A498
SN12C = tested on: SN12C
OVCAR-5 = tested on: OVCAR-5
NCI-H460 = tested on: NCI-H460
NCI-H522 = tested on: NCI-H522
SK-MEL-2 = tested on: SK-MEL-2
SK-OV-3 = tested on: SK-OV-3
UACC-257 = tested on: UACC-257
PC-3 = tested on: PC-3
SNB-75 = tested on: SNB-75
KM12 = tested on: KM12
HL-60 = tested on: HL-60
DU-145 = tested on: DU-145
HT-29 = tested on: HT-29
SK-MEL-5 = tested on: SK-MEL-5
A549 = tested on: A549
NCI-H23 = tested on: NCI-H23
BT-549 = tested on: BT-549
NCI-H226 = tested on: NCI-H226
ACHN = tested on: ACHN
T47D = tested on: T47D
SR = tested on: SR
UACC-62 = tested on: UACC-62
Hs-578T = tested on: Hs-578T
MDA-N = tested on: MDA-N
RPMI-8226 = tested on: RPMI-8226

Compound: O=C1CCC2SC1CCC2=O
- GI50 (LOX IMVI): > 100 µM (inactive)
- GI50 (MOLT-4): > 100 µM (inactive)
- GI50 (OVCAR-3): > 100 µM (inactive)
- GI50 (Malme-3M): > 100 µM (inactive)
- GI50 (SK-MEL-28): > 100 µM (inactive)
- GI50 (UO-31): > 100 µM (inactive)
- GI50 (SF-268): > 100 µM (inactive)
- GI50 (SNB-19): > 100 µM (inactive)
- GI50 (SW-620): > 100 µM (inactive)
- GI50 (RXF 393): > 100 µM (inactive)
- GI50 (M14): > 100 µM (inactive)
- GI50 (COLO 205): > 100 µM (inactive)
- GI50 (MCF7): > 100 µM (inactive)
- GI50 (TK-10): > 100 µM (inactive)
- GI50 (OVCAR-8): > 100 µM (inactive)
- GI50 (NCI/ADR-RES): > 100 µM (inactive)
- GI50 (SF-295): > 100 µM (inactive)
- GI50 (HCT-15): > 100 µM
- GI50 (K562): > 100 µM (inactive)
- GI50 (786-0): > 100 µM (inactive)
- GI50 (HCC 2998): > 100 µM (inactive)
- GI50 (HOP-62): > 100 µM (inactive)
- GI50 (SF-539): > 100 µM (inactive)
- GI50 (CCRF-CEM): > 100 µM (inactive)
- GI50 (IGROV-1): > 100 µM (inactive)
- GI50 (HCT-116): > 100 µM (inactive)
- GI50 (OVCAR-4): > 100 µM (inactive)
- GI50 (CAKI-1): > 100 µM (inactive)
- GI50 (EKVX): > 100 µM (inactive)
- GI50 (HOP-92): > 100 µM (inactive)
- GI50 (U-251): > 100 µM (inactive)
- GI50 (MDA-MB-231): > 100 µM (inactive)
- GI50 (MDA-MB-435): > 100 µM (inactive)
- GI50 (A498): > 100 µM (inactive)
- GI50 (SN12C): > 100 µM (inactive)
- GI50 (OVCAR-5): > 100 µM (inactive)
- GI50 (NCI-H460): > 100 µM (inactive)
- GI50 (NCI-H522): > 100 µM (inactive)
- GI50 (SK-MEL-2): > 100 µM (inactive)
- GI50 (SK-OV-3): > 100 µM (inactive)
- GI50 (UACC-257): > 100 µM (inactive)
- GI50 (PC-3): > 100 µM (inactive)
- GI50 (SNB-75): > 100 µM (inactive)
- GI50 (KM12): > 100 µM (inactive)
- GI50 (HL-60): > 100 µM (inactive)
- GI50 (DU-145): > 100 µM (inactive)
- GI50 (HT-29): > 100 µM (inactive)
- GI50 (SK-MEL-5): > 100 µM (inactive)
- GI50 (A549): > 100 µM (inactive)
- GI50 (NCI-H23): > 100 µM (inactive)
- GI50 (BT-549): > 100 µM (inactive)
- GI50 (NCI-H226): > 100 µM (inactive)
- GI50 (ACHN): > 100 µM (inactive)

Compound: C#CC(O)/C=C/C(O)CCCC(O)CC#CC(O)C#CCCCCC(O)/C=C/CCCC(O)/C=C/CCCCCCCCCCCCCC(O)C(O)C#CC(=O)O (configuration not stated)
- GI50 (LOX IMVI): 13.9 µM (inactive)
- GI50 (MOLT-4): > 25 µM (inactive)
- GI50 (Malme-3M): 23.2 µM (inactive)
- GI50 (SK-MEL-28): > 25 µM (inactive)
- GI50 (UO-31): > 25 µM (inactive)
- GI50 (SF-268): > 25 µM (inactive)
- GI50 (SNB-19): > 25 µM (inactive)
- GI50 (RXF 393): > 25 µM (inactive)
- GI50 (M14): > 25 µM (inactive)
- GI50 (COLO 205): > 25 µM (inactive)
- GI50 (MCF7): > 25 µM (inactive)
- GI50 (T47D): > 25 µM (inactive)
- GI50 (TK-10): > 25 µM (inactive)
- GI50 (OVCAR-8): > 25 µM (inactive)
- GI50 (NCI/ADR-RES): > 25 µM (inactive)
- GI50 (SF-295): > 25 µM (inactive)
- GI50 (SR): > 25 µM (inactive)
- GI50 (HCT-15): > 25 µM
- GI50 (K562): > 25 µM (inactive)
- GI50 (786-0): > 25 µM (inactive)
- GI50 (HCC 2998): > 25 µM (inactive)
- GI50 (HOP-62): > 25 µM (inactive)
- GI50 (CCRF-CEM): > 25 µM (inactive)
- GI50 (IGROV-1): > 25 µM (inactive)
- GI50 (HCT-116): > 25 µM (inactive)
- GI50 (OVCAR-4): > 25 µM (inactive)
- GI50 (CAKI-1): > 25 µM (inactive)
- GI50 (EKVX): > 25 µM (inactive)
- GI50 (HOP-92): > 25 µM (inactive)
- GI50 (U-251): > 25 µM (inactive)
- GI50 (MDA-MB-231): > 25 µM (inactive)
- GI50 (MDA-MB-435): > 25 µM (inactive)
- GI50 (A498): > 25 µM (inactive)
- GI50 (SN12C): > 25 µM (inactive)
- GI50 (OVCAR-5): > 25 µM (inactive)
- GI50 (NCI-H460): > 25 µM (inactive)
- GI50 (NCI-H522): 12.8 µM (inactive)
- GI50 (SK-MEL-2): > 25 µM (inactive)
- GI50 (SK-OV-3): > 25 µM (inactive)
- GI50 (UACC-62): > 25 µM (inactive)
- GI50 (UACC-257): > 25 µM (inactive)
- GI50 (Hs-578T): > 25 µM (inactive)
- GI50 (MDA-N): > 25 µM (inactive)
- GI50 (RPMI-8226): > 25 µM (inactive)
- GI50 (PC-3): > 25 µM (inactive)
- GI50 (SNB-75): 20 µM (inactive)
- GI50 (KM12): > 25 µM (inactive)
- GI50 (HL-60): > 25 µM (inactive)
- GI50 (DU-145): > 25 µM (inactive)
- GI50 (HT-29): > 25 µM (inactive)
- GI50 (SK-MEL-5): > 25 µM (inactive)
- GI50 (A549): > 25 µM (inactive)
- GI50 (NCI-H23): > 25 µM (inactive)
- GI50 (NCI-H226): > 25 µM (inactive)
- GI50 (ACHN): > 25 µM (inactive)

Compound: O=C(NNCc1ccc(Cl)cc1)Nc1cccc2ccccc12
- GI50 (LOX IMVI): > 100 µM (inactive)
- GI50 (MOLT-4): 29.4 µM (inactive)
- GI50 (OVCAR-3): > 100 µM (inactive)
- GI50 (Malme-3M): > 100 µM (inactive)
- GI50 (SK-MEL-28): > 100 µM (inactive)
- GI50 (UO-31): 84.1 µM (inactive)
- GI50 (SF-268): 93.1 µM (inactive)
- GI50 (SNB-19): > 100 µM (inactive)
- GI50 (SW-620): > 100 µM (inactive)
- GI50 (RXF 393): > 100 µM (inactive)
- GI50 (M14): > 100 µM (inactive)
- GI50 (COLO 205): > 100 µM (inactive)
- GI50 (MCF7): 26.8 µM (inactive)
- GI50 (T47D): 28.6 µM (inactive)
- GI50 (TK-10): > 100 µM (inactive)
- GI50 (OVCAR-8): > 100 µM (inactive)
- GI50 (NCI/ADR-RES): > 100 µM (inactive)
- GI50 (SF-295): 82 µM (inactive)
- GI50 (SR): > 100 µM (inactive)
- GI50 (HCT-15): > 100 µM
- GI50 (K562): > 100 µM (inactive)
- GI50 (786-0): 51.6 µM (inactive)
- GI50 (HCC 2998): > 100 µM (inactive)
- GI50 (HOP-62): 48.2 µM (inactive)
- GI50 (SF-539): 47.4 µM (inactive)
- GI50 (CCRF-CEM): > 100 µM (inactive)
- GI50 (IGROV-1): > 100 µM (inactive)
- GI50 (HCT-116): 63 µM (inactive)
- GI50 (OVCAR-4): > 100 µM (inactive)
- GI50 (CAKI-1): 42.7 µM (inactive)
- GI50 (EKVX): > 100 µM (inactive)
- GI50 (HOP-92): 29.3 µM (inactive)
- GI50 (U-251): 58.5 µM (inactive)
- GI50 (MDA-MB-435): 52.6 µM (inactive)
- GI50 (SN12C): > 100 µM (inactive)
- GI50 (OVCAR-5): 94.6 µM (inactive)
- GI50 (NCI-H460): 41.5 µM (inactive)
- GI50 (NCI-H522): 27.3 µM (inactive)
- GI50 (SK-MEL-2): > 100 µM (inactive)
- GI50 (UACC-62): 90.4 µM (inactive)
- GI50 (UACC-257): > 100 µM (inactive)
- GI50 (MDA-N): > 100 µM (inactive)
- GI50 (RPMI-8226): 16.4 µM (inactive)
- GI50 (PC-3): > 100 µM (inactive)
- GI50 (SNB-75): > 100 µM (inactive)
- GI50 (KM12): 68.4 µM (inactive)
- GI50 (HL-60): > 100 µM (inactive)
- GI50 (DU-145): 69.2 µM (inactive)
- GI50 (HT-29): > 100 µM (inactive)
- GI50 (SK-MEL-5): 76.2 µM (inactive)
- GI50 (NCI-H23): > 100 µM (inactive)
- GI50 (BT-549): 97.1 µM (inactive)
- GI50 (NCI-H226): > 100 µM (inactive)
- GI50 (ACHN): 45 µM (inactive)
